Measurements taken from patent US5602106A, “16-membered macrolide derivatives” (priority 1993, dated 1997).
In brackets after ≈: the same amount, converted by molar mass. Entries after “also recorded” stand apart in the source; their conditions may differ.

Legend:
[1] = test system: certain bacteria, for example, a species of acid-fast bacteria; details: Chemistry Letters, 769 (1977); cited from earlier work
test strains = experiment: Antimicrobial activity in vitro, test strains overall; format: cell-based
Method in brief: (§1)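 Seed cultures are prepared in STB for Staphylococcus strains and on blood agar for H. influenzae and B. catarrhalis. A 5 μl inoculum (approx. 10^6 CFU/ml) goes onto blood-supplemented agar plates, which incubate 20 hours at 37° C. before MIC determination.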

S. aureus 209P JC-1 = experiment: MIC, agar plate dilution method; format: cell-based; details: Staphylococcus aureus, 209P, 20 h, 37° C., 20 hours, SDA with 5% horse blood; read-out: Antimicrobial activity (MIC)
Method in brief: as §1

S. pneumoniae Type 1 = experiment: MIC, agar plate dilution method; format: cell-based; details: Streptococcus pneumoniae, TYPE1; 37° C., 20 hours, SDA with 5% horse blood; read-out: Antimicrobial activity (MIC)
Method in brief: (§2)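 Minimum inhibitory concentration by agar plate dilution on disk agar with 5% horse blood; 5 μl of roughly 10^6 CFU/ml inoculated, 37° C. for 20 h.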

K. pneumoniae PCI602 = experiment: MIC, agar plate dilution method; format: cell-based; details: Klebsiella pneumoniae, PCI602, 20 h, 37° C., SDA with 5% horse blood, read-out: Antimicrobial activity (MIC)
Method in brief: as §1

B. catarrhalis W-0506 = experiment: MIC, agar plate dilution method; format: cell-based; details: Moraxella catarrhalis, W0506; 37° C., 20 hours, SDA with 5% horse blood; read-out: Antimicrobial activity (MIC)
Method in brief: as §1

M. luteus ATCC9341 = experiment: MIC, agar plate dilution method; format: cell-based; details: Micrococcus luteus, ATCC9341; 37° C., 20 hours, SDA with 5% horse blood; read-out: Antimicrobial activity (MIC)
Method in brief: as §1

E. faecalis W-73 = experiment: MIC, agar plate dilution method; format: cell-based; details: Enterococcus faecalis, W73, 20 h, read-out: Antimicrobial activity (MIC)
Method in brief: as §1

S. aureus MS15009/pMS98 = experiment: MIC, agar plate dilution method; format: cell-based; details: Staphylococcus aureus, MS15009/PMS98, 20 h, read-out: Antimicrobial activity (MIC), 37° C., 20 hours, SDA with 5% horse blood
Method in brief: (§3)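 Agar dilution; inoculum ~10^6 CFU/ml, 5 μl spot; medium SDA + 5% horse blood; 37° C., 20 h. Preculture: STB broth (S. aureus, S. epidermidis); blood agar plate (B. catarrhalis, H. influenzae).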

S. aureus MS15027 = experiment: MIC, agar plate dilution method; format: cell-based; details: Staphylococcus aureus, MS15027, 20 h, read-out: Antimicrobial activity (MIC), 37° C., 20 hours, SDA with 5% horse blood
Method in brief: as §1

S. aureus M133 = experiment: MIC, agar plate dilution method; format: cell-based; details: Staphylococcus aureus, M133, 20 h, read-out: Antimicrobial activity (MIC), 37° C., 20 hours, SDA with 5% horse blood
Method in brief: as §1

S. aureus M126 = experiment: MIC, agar plate dilution method; format: cell-based; details: Staphylococcus aureus, 37° C., 20 hours, SDA with 5% horse blood, read-out: Antimicrobial activity (MIC)
Method in brief: as §1

B. catarrhalis W-0500 = experiment: MIC, agar plate dilution method; format: cell-based; details: Moraxella catarrhalis, W0500, 20 h, read-out: Antimicrobial activity (MIC), 37° C., 20 hours, SDA with 5% horse blood
Method in brief: as §1

S. aureus MS15026 = experiment: MIC, agar plate dilution method; format: cell-based; details: Staphylococcus aureus, 37° C., 20 hours, SDA with 5% horse blood, read-out: Antimicrobial activity (MIC)
Method in brief: as §1

S. pneumoniae IP692 = experiment: MIC, agar plate dilution method; format: cell-based; details: Streptococcus pneumoniae, IP692, 20 h, 37° C., 20 hours, SDA with 5% horse blood; read-out: Antimicrobial activity (MIC)
Method in brief: as §2

S. aureus MS15009/pMS99 = experiment: MIC, agar plate dilution method; format: cell-based; details: Staphylococcus aureus, MS15009/PMS99, 20 h, read-out: Antimicrobial activity (MIC)
Method in brief: as §3

H. influenzae Type b = experiment: MIC, agar plate dilution method; format: cell-based; details: Haemophilus influenzae, 20 h, read-out: Antimicrobial activity (MIC), 37° C., 20 hours, SDA with 5% horse blood
Method in brief: as §1

S. epidermidis ATCC14990 = experiment: MIC, agar plate dilution method; format: cell-based; details: Staphylococcus epidermidis, ATCC14990, 20 h, read-out: Antimicrobial activity (MIC), 37° C., 20 hours, SDA with 5% horse blood
Method in brief: as §1

Branhamella catarrhalis = experiment: Antimicrobial activity in vitro; format: cell-based; details: vs clarithromycin
Description: (§4) The effect of the first aspect of the present invention resides in the creation of a novel and useful 16-membered macrolide derivative. Antimicrobial activities of the compounds of the present invention were determined by measuring minimum inhibitory concentration (MIC). Minimum inhibitory concentration was determined by the agar plate dilution method in the following manner.
(§5) Test strains were subjected to seed culture using Sensitivity test broth (STB, Nissui Pharmaceutical) except that the strains belonging to the genus Streptococcus, Branhamella and Haemophilus were cultured on blood agar plate. A 5 μl portion of cell suspension of the test strains having about 10^6 CFU/ml was inoculated into Sensitivity disk agar (SDA, Nissui Pharmaceutical) supplemented with 5% horse blood and incubated at 37° C. for 20 hours. Then, MIC was measured. […] Antimicrobial activities in vitro of the compounds (1) and (2) are shown in Table 1, and those of the compounds (3) and (4) in Table 3.

Enterococcus feacalis = experiment: Antimicrobial activity in vitro; format: cell-based; details: vs clarithromycin
Description: as §4, §5

[2] = test system: drug-resistant strain of Staphylococcus; experiment: Antimicrobial activity in vitro; format: cell-based; details: vs clarithromycin
Description: as §4, §5

Streptococcus pneumoniae = experiment: Antimicrobial activity in vitro; format: cell-based; details: compared with MDM and LM-A7
Description: as §4, §5

Haemophilus influenzae = experiment: Antimicrobial activity in vitro; format: cell-based; details: vs clarithromycin
Description: as §4, §5

[3] = test system: clinically important Gram-positive bacteria; experiment: Antimicrobial activity / growth inhibition; format: cell-based
Method in brief: as §1

In the case of CO[C@@H]1[C@@H](O[C@@H]2O[C@H](C)[C@@H](O[C@H]3C[C@@](C)(OC)[C@@H](OC(=O)CC(C)C)[C@H](C)O3)[C@H](N(C)C)[C@H]2O)[C@@H](CC=O)C[C@@H](C)C(=O)/C=C/C=C/C[C@@H](C)OC(=O)C[C@H]1OC(C)=O [3"-O-methylcarbomycin B], the “antimicrobial activity compared with carbomycin B” value [1] is listed as “higher antimicrobial activity than carbomycin B”.

With CCC(=O)O[C@H]1[C@H](C)O[C@@H](O[C@H]2[C@H](N(C)C)[C@@H](O)[C@H](O[C@H]3[C@@H](CC=O)C[C@@H](C)[C@@H](O)/C=C/C=C/C[C@@H](C)OC(=O)C[C@@H](O)[C@@H]3OC)O[C@@H]2C)C[C@@]1(C)OC [(2), 3"-O-methylleucomycin A7] the “antimicrobial activities in vitro compared with corresponding compounds having free 3"-hydroxyl (MDM, LM-A7)” value (test strains; against most of test strains) was “twice as high”, the “antimicrobial activities in comparison with rokitamycin” value (test strains; vs rokitamycin) was “generally excellent except for a Gram-negative bacterium (Branhamella catarrhalis); also recorded: slightly superior to those of rokitamycin” and the MIC (S. aureus 209P JC-1) was 0.1 µg/mL (≈ 0.13 µM). It also gave an MIC (S. pneumoniae Type 1) of 0.05 µg/mL (≈ 0.0648 µM), an MIC (K. pneumoniae PCI602) greater than 100 µg/mL and an MIC (B. catarrhalis W-0506) of 0.78 µg/mL (≈ 1.01 µM). The MIC (M. luteus ATCC9341) was less than 0.025 µg/mL, the MIC (E. faecalis W-73) was 0.39 µg/mL (≈ 0.505 µM) and the MIC (S. aureus MS15009/pMS98) was 0.2 µg/mL (≈ 0.259 µM). It also gave an MIC (S. aureus MS15027) of 0.2 µg/mL (≈ 0.259 µM), an MIC (S. aureus M133) of 0.2 µg/mL (≈ 0.259 µM) and an MIC (S. aureus M126) greater than 100 µg/mL. It also gave an MIC (B. catarrhalis W-0500) of 0.39 µg/mL (≈ 0.505 µM), an MIC (S. aureus MS15026) greater than 100 µg/mL and an MIC (S. pneumoniae IP692) of less than 0.025 µg/mL. The MIC (S. aureus MS15009/pMS99) was greater than 100 µg/mL, the MIC (H. influenzae Type b) was 6.25 µg/mL (≈ 8.1 µM) and the MIC (S. epidermidis ATCC14990) was 0.2 µg/mL (≈ 0.259 µM). For the same molecule, the “antimicrobial activity compared with clarithromycin” value (Branhamella catarrhalis) was “inferior to that of clarithromycin”, the “antimicrobial activity compared with clarithromycin” value (Enterococcus feacalis) was “comparable or slightly superior activities” and the “antimicrobial activity compared with clarithromycin” value [2] was “definitely superior antimicrobial activity”. For the same molecule, the “antimicrobial activity against Streptococcus pneumoniae” value (Streptococcus pneumoniae) was “considerably improved antimicrobial activity”, the “antimicrobial activity compared with clarithromycin” value (Haemophilus influenzae) was “comparable or slightly superior activities” and the “antimicrobial activities (in words)” value [3] was “strong antimicrobial activities”.
